Measured values: article PMC5699943 (Biotechnology and bioengineering, 2017)

Key:
Assay in all cases: formaldehyde-responsive FrmR GFP reporter in E. coli cells
Type in all cases: cell-based
Conditions in all cases: whole cells, 0-500 mM methanol, 2 h, 37°C, NAD-dependent
AdhA from C. glutamicum = molecular target: T1, AdhA from C. glutamicum (Corynebacterium glutamicum, UniProt Q8NLX9)
T1 sequence (Q8NLX9 1-345): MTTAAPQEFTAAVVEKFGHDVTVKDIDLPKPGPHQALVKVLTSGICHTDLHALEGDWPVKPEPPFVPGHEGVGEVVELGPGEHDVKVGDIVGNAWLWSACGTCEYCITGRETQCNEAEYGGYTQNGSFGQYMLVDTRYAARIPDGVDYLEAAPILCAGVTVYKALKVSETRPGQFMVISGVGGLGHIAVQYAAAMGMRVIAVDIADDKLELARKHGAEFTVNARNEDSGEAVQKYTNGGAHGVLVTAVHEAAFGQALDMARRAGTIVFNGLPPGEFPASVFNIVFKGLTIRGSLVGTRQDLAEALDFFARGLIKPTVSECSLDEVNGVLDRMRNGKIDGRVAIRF

[1] = molecular target: T2, mdh2 from Cupriavidus necator (Cupriavidus necator, UniProt F8GNE5)
T2 sequence (F8GNE5 1-390): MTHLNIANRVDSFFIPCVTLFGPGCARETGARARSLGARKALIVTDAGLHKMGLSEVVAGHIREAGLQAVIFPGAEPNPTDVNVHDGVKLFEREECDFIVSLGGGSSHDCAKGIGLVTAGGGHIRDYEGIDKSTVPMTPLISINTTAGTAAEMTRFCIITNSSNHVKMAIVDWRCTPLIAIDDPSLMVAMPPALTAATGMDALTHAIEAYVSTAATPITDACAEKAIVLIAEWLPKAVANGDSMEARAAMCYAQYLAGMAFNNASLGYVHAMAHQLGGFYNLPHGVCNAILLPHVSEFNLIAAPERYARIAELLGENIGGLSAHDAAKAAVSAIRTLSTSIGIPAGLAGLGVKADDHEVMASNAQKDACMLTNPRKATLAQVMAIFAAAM

[2] = molecular target: T3, mdh from Geobacillus stearothermophilus (Geobacillus stearothermophilus, UniProt P42327)
T3 sequence (P42327 1-339): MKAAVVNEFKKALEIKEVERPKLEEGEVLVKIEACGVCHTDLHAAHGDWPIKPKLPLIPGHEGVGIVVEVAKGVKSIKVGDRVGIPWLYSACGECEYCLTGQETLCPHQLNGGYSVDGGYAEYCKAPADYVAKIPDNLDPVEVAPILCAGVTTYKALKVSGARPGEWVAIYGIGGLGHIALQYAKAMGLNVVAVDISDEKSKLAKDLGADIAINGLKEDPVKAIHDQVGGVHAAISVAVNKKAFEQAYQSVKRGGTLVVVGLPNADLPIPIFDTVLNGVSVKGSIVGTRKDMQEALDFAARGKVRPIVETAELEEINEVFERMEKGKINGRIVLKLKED

## CO [methanol]
AdhA from C. glutamicum
  formaldehyde-responsive FrmR GFP reporter in E. coli cells: After two hours, signal was detected for all variants except Mdh1
[1]
  formaldehyde-responsive FrmR GFP reporter in E. coli cells: After two hours, signal was detected for all variants except Mdh1
[2]
  formaldehyde-responsive FrmR GFP reporter in E. coli cells: After two hours, signal was detected for all variants except Mdh1
